Measured values published in article PMC8578629, “Photoactivated cell-killing amino-based flavylium compounds” (Scientific Reports, 2021).

Columns and labels:
[1] = Molar absorption coefficient (ɛ) at 630 nm; assay type: physicochemical
Method: The molar extinction coefficient or molar absorption (ɛ), of all synthesized pigments was determined in three different solvents (ethanol, methanol and DMSO). For each pigment, in each solvent, a range of concentrations was prepared and then the spectrum of each solution was read. Finally, the respective absorbances (collected at 630 nm) were represented as a function of concentration and the ɛ value was taken from the slope value of the equation curve.

[2] = Oxygen singlet production by Singlet Oxygen Sensor Green assay; conditions: compound 25 μM, after white light irradiation 79.2 J cm^−2
Method: The production of singlet oxygen by the different amino-based compounds in solution was determined as follows: a stock solution of Singlet Oxygen Sensor Green was prepared at 5 mM in methanol (MeOH). Working solutions of the probe were prepared at 2 mM in 100 mM pH 7.5 Tris buffer and in 100 mM pH 7.5 Tris buffer with 10 mM of Sodium Azide. The compounds were then prepared at a stock concentration of 500 μM and the working solutions were prepared in 100 mM pH 7.5 Tris buffer and in 100 mM pH 7.5 Tris buffer with 10 mM of Sodium Azide. 1 μL of Singlet Oxygen Sensor Green working solutions and 100 μL of compounds solution were mixed to a final volume of 1000 μL (in 100 mM pH 7.5 Tris buffer or in 100 mM pH 7.5 Tris buffer with 10 mM of Sodium Azide). 100 μL of each solution was then added to a 96-well black plate and 100 μL of Deuterium Oxide was added for a final concentration of 1 μM Singlet Oxygen Sensor Green and 25 μM for the different amino-based compounds. The fluorescence was then registered in a spectrofluorometer using excitation/emission of 488/525 nm. After this procedure, the wells were irradiated with a white light source with a total of 79.2 J cm^−2, corresponding to a total irradiation time of 1 h (6 pulses of 10 min) and then, the fluorescence determined using the same excitation/emission pair. As a positive control, Methylene Blue was used at a final concentration of 10 μM. The oxygen singlet production methodology was performed in a dark room.

HaCaT cells [3] = assay: Cellular uptake by HaCaT cells (overall uptake, adsorption/absorption ratio, kinetics); assay type: in vitro ADME, human; conditions: for Uptake amount, range over the initial concentrations: 4 h incubation, 6.25–100 μM; for % Uptake ± SEM: 4 h
Method: The cellular uptake of the different compounds by HaCaT cells was determined following the protocol: cells were seeded at a density of 4 × 10^4 cells/well onto 12-well plates (1060 μL per well) and after 24 h the compounds were added to the plates in different concentrations (6.25–100 μM; 1060 μL per well) and incubated for a period of 4 h at 37 °C in an atmosphere of 5% CO2 and in the presence of DMEM with 2% FBS. Then, the medium with the compounds was removed, cells are washed with PBS to remove any extracellular compounds and the same volume of DMSO (1060 µL) was added to cells. After 60 min in the dark, the plates were submitted to fluorescence determination. The fluorescence intensity of each well was then recorded at the different wavelength pairs specific for each tested compound (ex/em) in a FlexStation 3 Multi-Mode Microplate Reader. The fluorescence values were then used to plot into the corresponding calibration curves and the uptake amounts were determined. • Fl577/658 = 19.734 × Conc (7NEt24′NMe2), μM; Fl577/769 = 0.2869 × Conc (7NEt2st4′NMe2), μM; • Fl577/635 = 24.556 × Conc (7NEt24′NH2), μM; Fl577/635 = 42.851 × Conc (PpIX), μM;
The ratio between the absorption and surface adsorption by HaCaT for each compound was performed. Cells were seeded in the same conditions as previously stated. After 24 h, compounds were added to the plates at the concentration of 100 μM (1060 μL per well) and incubated for a period of 4 h at 37 °C in an atmosphere of 5% CO2 and in the presence of DMEM with 2% FBS. After incubation, the medium with the compounds was removed and Dulbecco’s phosphate buffer (DPBS) was added (1060 μL per well). The fluorescence intensity of each well was then determined at the different wavelength pairs specific for each tested compound (ex/em) using a FlexStation 3 Multi‐Mode Microplate Reader. After this, 300 μL of Trypan Blue was added ([…]) to each well and the fluorescence intensity was determined in the same conditions. Cells with DPBS and cells with DPBS + Trypan Blue were used as controls. • Fl577/658 = 19.734 × Conc (7NEt24′NMe2), μM; Fl577/769 = 0.2869 × Conc (7NEt2st4′NMe2), μM; • Fl577/635 = 24.556 × Conc (7NEt24′NH2), μM; Fl577/635 = 42.851 × Conc (PpIX), μM;
The cellular uptake kinetics of the different compounds by HaCaT cells was determined as follows: cells were seeded at a density of 4 × 10^4 cells/well onto 12-well plates (1060 μL per well) and after 24 h compounds were added to the plates at a concentration of 100 μM (1060 μL per well) and incubated for different time periods (15, 30, 60, 120, 180 and 240 min) at 37 °C in an atmosphere of 5% CO2 and in the presence of DMEM with 2% FBS. After each time period, the medium with the compounds was removed and DMSO was added to cells. After 60 min in the dark the plates were submitted to fluorescence determination. The fluorescence intensity of each well was then determined at the different wavelength pairs specific for each tested compound (ex/em) (FlexStation 3 Multi-Mode Microplate Reader). The fluorescence values were then used to plot into the corresponding calibration curves and the uptake amounts were determined.

HaCaT cells [4] = assay: Reactive oxygen species production (DCF-DA); assay type: cell-based, human; conditions: 25 μM, 6.6 J cm^−2, versus control cells
Method: Cells reactive oxygen species (ROS) production was evaluated following the standard method. Briefly, cells were seed at a density of 4 × 10^4 cells/mL onto 96 well plates and after 24 h the compounds were added at 25 μM (non-toxic concentration) and the same previous procedure for the photoactivation assays was followed. After that, cells were washed twice in Hank’s Buffered Saline Solution (HBSS) and incubated with 100 μL of 50 μM 2′,7′-dichlorodihydrofluorescein diacetate (DCF‐DA) for 30 min in the same previous conditions. For positive control, cells were treated with 100 μM H2O2 for 30 min prior to the addition of DCF-DA. Cells were then washed twice with HBSS and incubated with fresh DMEM medium for 24 h. After this period, the fluorescence intensity at […] (ex/em) was determined in a FlexStation 3 Multi-Mode Microplate Reader.

**Q.** Which results are given for `CCN(CC)c1ccc2ccc(-c3ccc(N)cc3)[o+]c2c1` [7NEt24′NH2, 4′-amino-7-diethylamino-benzopyrylium]?
**A.** Molar absorption coefficient ɛ at 630 nm ([1]; DMSO): 5687 M⁻¹ cm⁻¹; Molar absorption coefficient ɛ at 630 nm ([1]; Ethanol): 2225 M⁻¹ cm⁻¹; Molar absorption coefficient ɛ at 630 nm ([1]; Methanol): 1682 M⁻¹ cm⁻¹; ^1O2 production [2]: 173.1 ± 15.73%; Uptake amount, range over the initial concentrations (HaCaT cells [3]): 1.229–2.192%; % Uptake ± SEM (HaCaT cells [3]; initial concentration 6.25 μM): 1.229 ± 0.296%; % Uptake ± SEM (HaCaT cells [3]; initial concentration 12.5 μM): 1.828 ± 0.419%; % Uptake ± SEM (HaCaT cells [3]; initial concentration 25 μM): 1.977 ± 0.581%; % Uptake ± SEM (HaCaT cells [3]; initial concentration 50 μM): 2.192 ± 0.662%; % Uptake ± SEM (HaCaT cells [3]; initial concentration 100 μM): 1.785 ± 0.383%; ROS production upon white light irradiation (in words) (HaCaT cells [4]): positive modulation of ROS production

**Q.** Which “Molar absorption coefficient ɛ at 630 nm” value ([1]; DMSO) does the source give for `CCN(CC)c1ccc2ccc(-c3ccc(N(C)C)cc3)[o+]c2c1` [7NEt24′NMe2, 7-diethylamino-4′-dimethylamino-benzopyrylium] here?
**A.** 11,031 M^−1 cm^−1

**Q.** And the “Molar absorption coefficient ɛ at 630 nm” value ([1]; Ethanol)?
**A.** 10,725 M^−1 cm^−1

**Q.** What about the “Molar absorption coefficient ɛ at 630 nm” value ([1]; Methanol) of the same molecule?
**A.** 8,720 M^−1 cm^−1

**Q.** What about the “^1O2 production” value [2] of the same molecule?
**A.** 131.2 ± 3.90%

**Q.** And the “Uptake amount, range over the initial concentrations” value (HaCaT cells [3])?
**A.** 2.745–4.156%

**Q.** What about the “% Uptake ± SEM” value (HaCaT cells [3]; initial concentration 6.25 μM) of the same molecule?
**A.** 3.416 ± 0.629%

**Q.** And the “% Uptake ± SEM” value (HaCaT cells [3]; initial concentration 12.5 μM)?
**A.** 4.156 ± 0.764%

**Q.** And the “% Uptake ± SEM” value (HaCaT cells [3]; initial concentration 25 μM)?
**A.** 2.745 ± 0.504%

**Q.** And the “% Uptake ± SEM” value (HaCaT cells [3]; initial concentration 50 μM)?
**A.** 3.660 ± 0.831%

**Q.** What about the “% Uptake ± SEM” value (HaCaT cells [3]; initial concentration 100 μM) of the same molecule?
**A.** 3.523 ± 0.695%

**Q.** What about the “ROS production upon white light irradiation (in words)” value (HaCaT cells [4]) of the same molecule?
**A.** positive modulation of ROS production

**Q.** Which “Molar absorption coefficient ɛ at 630 nm” value ([1]; DMSO) does the source give for `C=CC1=C(C)c2cc3[nH]c(cc4nc(cc5[nH]c(cc1n2)c(C)c5CCC(=O)O)C(CCC(=O)O)=C4C)c(C)c3C=C` [PpIX, protoporphyrin IX, reference compound] here?
**A.** 3207 M⁻¹ cm⁻¹

**Q.** What about the “^1O2 production” value [2] of the same molecule?
**A.** 263.3 ± 12.28%

**Q.** What about the “% Uptake ± SEM” value (HaCaT cells [3]; initial concentration 6.25 μM) of the same molecule?
**A.** 0.694 ± 0.110%

**Q.** And the “% Uptake ± SEM” value (HaCaT cells [3]; initial concentration 12.5 μM)?
**A.** 0.615 ± 0.050%

**Q.** And the “% Uptake ± SEM” value (HaCaT cells [3]; initial concentration 25 μM)?
**A.** 0.508 ± 0.021%

**Q.** What about the “% Uptake ± SEM” value (HaCaT cells [3]; initial concentration 50 μM) of the same molecule?
**A.** 0.667 ± 0.040%

**Q.** And the “% Uptake ± SEM” value (HaCaT cells [3]; initial concentration 100 μM)?
**A.** 0.659 ± 0.037%

**Q.** And the “ROS production upon white light irradiation (in words)” value (HaCaT cells [4])?
**A.** no significant differences

**Q.** With `CCN(CC)c1ccc2ccc(/C=C/c3ccc(N(C)C)cc3)[o+]c2c1` [7NEt2st4′NMe2, 7-(diethylamino)-2-(4′-dimethylaminostyryl)-benzopyrylium] as the molecule, how does the “Molar absorption coefficient ɛ at 630 nm” value ([1]; DMSO) read?
**A.** 15,728 M^−1 cm^−1

**Q.** And the “Molar absorption coefficient ɛ at 630 nm” value ([1]; Ethanol)?
**A.** 16,281 M^−1 cm^−1

**Q.** What about the “Molar absorption coefficient ɛ at 630 nm” value ([1]; Methanol) of the same molecule?
**A.** 22,749 M^−1 cm^−1

**Q.** What about the “^1O2 production” value [2] of the same molecule?
**A.** 181.2 ± 22.23%

**Q.** And the “Uptake amount, range over the initial concentrations” value (HaCaT cells [3])?
**A.** 3.564–5.830%

**Q.** What about the “% Uptake ± SEM” value (HaCaT cells [3]; initial concentration 6.25 μM) of the same molecule?
**A.** 4.448 ± 0.876%

**Q.** And the “% Uptake ± SEM” value (HaCaT cells [3]; initial concentration 12.5 μM)?
**A.** 4.236 ± 0.628%

**Q.** What about the “% Uptake ± SEM” value (HaCaT cells [3]; initial concentration 25 μM) of the same molecule?
**A.** 3.564 ± 0.613%

**Q.** And the “% Uptake ± SEM” value (HaCaT cells [3]; initial concentration 50 μM)?
**A.** 4.091 ± 0.552%

**Q.** What about the “% Uptake ± SEM” value (HaCaT cells [3]; initial concentration 100 μM) of the same molecule?
**A.** 5.830 ± 1.569%

**Q.** What about the “ROS production upon white light irradiation (in words)” value (HaCaT cells [4]) of the same molecule?
**A.** positive modulation of ROS production
